Test results published in patent US6426369B1, “Oxethazaine as antimicrobial agent” (Eisai Co., Ltd., priority 1997, dated 2002).
≈ marks a conversion by molar mass, not a printed value.

Columns and labels:
Gram-positive bacteria = test: Antimicrobial activity (MIC) of oxethazaine and structure analogues against Gram-positive bacteria; format: cell-based
H. pylori [1] = test: Antimicrobial activity test 1: anti-H. pylori activity of a single compound (agar plate method); format: cell-based, Helicobacter pylori; details: Helicobacter pylori, read-out: MIC (growth inhibition)
H. pylori [2] = test: Antimicrobial activity test 3: oxethazaine in combination with compound (II), checker board method; format: cell-based; details: Helicobacter pylori
From the text: In each Table, the concentration of oxethazaine is shown vertically, and the concentration of compound (II) is shown horizontally. In each Table, “−” indicates the inhibited growth of H. pylori (presence of antimicrobial activity), and “+” indicates the growth of H. pylori (absence of antimicrobial activity). […] It is assumed to be present when the MIC of either oxethazaine or PPI is reduced by ½ (when anti-H. pylori activity is not recognized when the concentrations of both oxethazaine and PPI are reduced to ¼, but anti-H. pylori activity is recognized when the concentration of one compound is reduced to ¼ and simultaneously the concentration of the other compound is reduced to ½.).

H. pylori [3] = test: Antimicrobial activity test 2: time for sterilizing H. pylori (viable cell count in Brucella broth); format: cell-based, Helicobacter pylori; details: NCTC 11637
Method: A solution of the test compound was added to Brucella broth containing 5% fetal bovine serum, cultured under slightly aerobic conditions at 37° C., and the vial microbe cell number in Brucella agar containing 7% horse blood was counted at predetermined intervals. The above compound (1) was dissolved in a 1% aqueous solution of […] (DMSO), and the above compound (2) was dissolved in water to prepare a solution of each test compound. “cfu” in Tables and Figures means “colony forming unit”.

H. pylori [4] = test: Antimicrobial activity test 6: oxethazaine in combination with an antibiotic (AMPC, CAM, RXM), checker board method; format: cell-based, Helicobacter pylori; details: combined use with oxethazaine; out of 15 strains (AMPC), 21 strains (CAM), 22 strains (RXM)
From the text: The effect of combined use with amoxicillin (AMPC), clarithromycin (CAM) or roxithromycin (RXM) was examined in the same manner as in antimicrobial activity test 1, using the checker board method.

H. pylori [5] = details: PPI alone, 30 mg/day, 8 weeks; cited from earlier work
[6] = strain 90-397 (first line, r19)
[7] = strain 90-397 (second line, r25)

Compound	antimicrobial activity (MIC) (Gram-positive bacteria; E. faecalis RIMD 3116001)	antimicrobial activity (MIC) (Gram-positive bacteria; S. aureus FDA 209-P)	antimicrobial activity (MIC) (Gram-positive bacteria; S. epidermidis ATCC 12228)	MIC (H. pylori [1]; NCTC11637, strain NCTC11637)	MIC (H. pylori [1]; NCTC11639, strain NCTC11639)	MIC (H. pylori [1]; NCTC11916, strain NCTC11916)	MIC (H. pylori [1]; strain 89-355)	MIC (H. pylori [1]; strain 89-357)	MIC (H. pylori [1]; strain 89-360)	MIC (H. pylori [1]; strain 90-384)	MIC (H. pylori [1]; strain 90-388 (1))	MIC (H. pylori [1]; strain 90-388)	MIC (H. pylori [1]; strain 90-390 (1))	MIC (H. pylori [1]; strain 90-390)	MIC (H. pylori [1]; strain 90-392)	MIC (H. pylori [1]; [6])	MIC (H. pylori [1]; [7])	MIC (H. pylori [1]; strain 90-407)	MIC (H. pylori [1]; strain 90-411)	MIC (H. pylori [1]; strain 90-414 (1))	further results
CCOC(=O)c1ccc(NC(=O)CN2CCCCC2)cc1 [(B)]	>100 µg/mL	>100 µg/mL	>100 µg/mL	–	–	–	–	–	–	–	–	–	–	–	–	–	–	–	–	–	–
CC1(C)S[C@@H]2[C@H](NC(=O)[C@H](N)c3ccccc3)C(=O)N2[C@H]1C(=O)O [ampicillin]	–	–	–	–	–	–	–	–	–	–	–	–	–	–	–	–	–	–	–	–	Viable microbe cell number (H. pylori [3]; 1 MIC, 0 h): 6.25 log10cfu/ml; Viable microbe cell number (H. pylori [3]; 1 MIC, 3 h): 5.51 log10cfu/ml; Viable microbe cell number (H. pylori [3]; 1 MIC, 6 h): 4.49 log10cfu/ml; Viable microbe cell number (H. pylori [3]; 1 MIC, 24 h): 3.48 log10cfu/ml; Viable microbe cell number (H. pylori [3]; 2 MIC, 0 h): 6.25 log10cfu/ml; Viable microbe cell number (H. pylori [3]; 2 MIC, 3 h): 5.30 log10cfu/ml; Viable microbe cell number (H. pylori [3]; 2 MIC, 6 h): 4.41 log10cfu/ml; Viable microbe cell number (H. pylori [3]; 2 MIC, 24 h): 3.00 log10cfu/ml; Viable microbe cell number (H. pylori [3]; 4 MIC, 0 h): 6.25 log10cfu/ml; Viable microbe cell number (H. pylori [3]; 4 MIC, 3 h): 4.95 log10cfu/ml; Viable microbe cell number (H. pylori [3]; 4 MIC, 6 h): 4.20 log10cfu/ml; Viable microbe cell number (H. pylori [3]; 4 MIC, 24 h): 2.48 log10cfu/ml
CC1(C)S[C@@H]2[C@H](NC(=O)[C@H](N)c3ccc(O)cc3)C(=O)N2[C@H]1C(=O)O [Amoxicillin, amoxicillin]	–	–	–	–	–	–	–	–	–	–	–	–	–	–	–	–	–	–	–	–	additive effect, number of strains (H. pylori [4]): 10 strains/; synergism, number of strains (H. pylori [4]): 0 strains/
Cc1c(OCC(F)(F)F)ccnc1C[S+]([O-])c1nc2ccccc2[nH]1 (stereo not drawn) [Compound (IV), lansoprazole]	–	–	–	12.5 µg/mL (≈ 33.8 µM)	3.13 µg/mL (≈ 8.47 µM)	6.25 µg/mL (≈ 16.9 µM)	3.13 µg/mL (≈ 8.47 µM)	6.25 µg/mL (≈ 16.9 µM)	6.25 µg/mL (≈ 16.9 µM)	3.13 µg/mL (≈ 8.47 µM)	6.25 µg/mL (≈ 16.9 µM)	3.13 µg/mL (≈ 8.47 µM)	6.25 µg/mL (≈ 16.9 µM)	3.13 µg/mL (≈ 8.47 µM)	6.25 µg/mL (≈ 16.9 µM)	3.13 µg/mL (≈ 8.47 µM)	6.25 µg/mL (≈ 16.9 µM)	3.13 µg/mL (≈ 8.47 µM)	3.13 µg/mL (≈ 8.47 µM)	6.25 µg/mL (≈ 16.9 µM)	degree of efficacy for H. pylori therapy (H. pylori [5]): 5%; MIC (H. pylori [1]; strain 89-360 (1)): 6.25 µg/mL (≈ 16.9 µM); MIC (H. pylori [1]; strain 90-407 (1)): 6.25 µg/mL (≈ 16.9 µM); MIC (H. pylori [1]; strain 90-414): 6.25 µg/mL (≈ 16.9 µM); MIC (H. pylori [1]; strain 90-428): 6.25 µg/mL (≈ 16.9 µM); MIC (H. pylori [1]; strain EH12): 3.13 µg/mL (≈ 8.47 µM); MIC (H. pylori [1]; strain EH13): 3.13 µg/mL (≈ 8.47 µM); MIC (H. pylori [1]; strain EH16): 3.13 µg/mL (≈ 8.47 µM); MIC (H. pylori [1]; strain EH26): 6.25 µg/mL (≈ 16.9 µM)

Now from value to compound, other results behind:

antimicrobial activity (MIC) (Gram-positive bacteria; E. faecalis RIMD 3116001)	antimicrobial activity (MIC) (Gram-positive bacteria; S. aureus FDA 209-P)	antimicrobial activity (MIC) (Gram-positive bacteria; S. epidermidis ATCC 12228)	MIC (H. pylori [1]; NCTC11637, strain NCTC11637)	MIC (H. pylori [1]; NCTC11639, strain NCTC11639)	MIC (H. pylori [1]; NCTC11916, strain NCTC11916)	MIC (H. pylori [1]; strain 89-355)	MIC (H. pylori [1]; strain 89-357)	MIC (H. pylori [1]; strain 89-360)	MIC (H. pylori [1]; strain 90-384)	MIC (H. pylori [1]; strain 90-388 (1))	MIC (H. pylori [1]; strain 90-388)	MIC (H. pylori [1]; strain 90-390 (1))	MIC (H. pylori [1]; strain 90-390)	MIC (H. pylori [1]; strain 90-392)	MIC (H. pylori [1]; [6])	MIC (H. pylori [1]; [7])	MIC (H. pylori [1]; strain 90-407)	MIC (H. pylori [1]; strain 90-411)	MIC (H. pylori [1]; strain 90-414 (1))	Compound	further results
>100 µg/mL	>100 µg/mL	>100 µg/mL	–	–	–	–	–	–	–	–	–	–	–	–	–	–	–	–	–	CCN(CC)CCOC(=O)c1ccc(N)cc1.Cl [(C)]	–
–	–	–	50 µg/mL (≈ 145 µM)	25 µg/mL (≈ 72.4 µM)	50 µg/mL (≈ 145 µM)	25 µg/mL (≈ 72.4 µM)	50 µg/mL (≈ 145 µM)	50 µg/mL (≈ 145 µM)	50 µg/mL (≈ 145 µM)	25 µg/mL (≈ 72.4 µM)	50 µg/mL (≈ 145 µM)	25 µg/mL (≈ 72.4 µM)	50 µg/mL (≈ 145 µM)	25 µg/mL (≈ 72.4 µM)	25 µg/mL (≈ 72.4 µM)	25 µg/mL (≈ 72.4 µM)	25 µg/mL (≈ 72.4 µM)	25 µg/mL (≈ 72.4 µM)	25 µg/mL (≈ 72.4 µM)	COc1ccc2[nH]c([S+]([O-])Cc3ncc(C)c(OC)c3C)nc2c1 (stereo not drawn) [Compound (III), omeprazole]	MIC (H. pylori [1]; strain 90-414): 50 µg/mL (≈ 145 µM); MIC (H. pylori [1]; strain 90-428): 50 µg/mL (≈ 145 µM); MIC (H. pylori [1]; strain EH12): 25 µg/mL (≈ 72.4 µM); MIC (H. pylori [1]; strain EH13): 25 µg/mL (≈ 72.4 µM); MIC (H. pylori [1]; strain EH16): 25 µg/mL (≈ 72.4 µM); MIC (H. pylori [1]; strain EH26): 25 µg/mL (≈ 72.4 µM)
>100 µg/mL	>100 µg/mL	>100 µg/mL	–	–	–	–	–	–	–	–	–	–	–	–	–	–	–	–	–	CCOC(=O)c1ccc(N)cc1 [(A)]	–
–	–	–	1.56 µg/mL (≈ 4.54 µM)	0.8 µg/mL (≈ 2.33 µM)	1.56 µg/mL (≈ 4.54 µM)	1.56 µg/mL (≈ 4.54 µM)	0.8 µg/mL (≈ 2.33 µM)	1.56 µg/mL (≈ 4.54 µM)	1.56 µg/mL (≈ 4.54 µM)	0.8 µg/mL (≈ 2.33 µM)	1.56 µg/mL (≈ 4.54 µM)	0.8 µg/mL (≈ 2.33 µM)	0.8 µg/mL (≈ 2.33 µM)	0.8 µg/mL (≈ 2.33 µM)	1.56 µg/mL (≈ 4.54 µM)	0.8 µg/mL (≈ 2.33 µM)	1.56 µg/mL (≈ 4.54 µM)	0.8 µg/mL (≈ 2.33 µM)	0.8 µg/mL (≈ 2.33 µM)	COCCCOc1ccnc(CSc2nc3ccccc3[nH]2)c1C [Compound (II), 2-[4-(3-methoxypropoxy)-3-methylpyridine-2-yl]methylthio-1H-benzimidazole]	MIC (H. pylori [1]; strain 89-360 (1)): 1.56 µg/mL (≈ 4.54 µM); MIC (H. pylori [1]; strain 90-407 (1)): 0.8 µg/mL (≈ 2.33 µM); MIC (H. pylori [1]; strain 90-414): 0.8 µg/mL (≈ 2.33 µM); MIC (H. pylori [1]; strain 90-428): 1.56 µg/mL (≈ 4.54 µM); MIC (H. pylori [1]; strain EH12): 0.8 µg/mL (≈ 2.33 µM); MIC (H. pylori [1]; strain EH13): 0.8 µg/mL (≈ 2.33 µM); MIC (H. pylori [1]; strain EH16): 0.8 µg/mL (≈ 2.33 µM); MIC (H. pylori [1]; strain EH26): 1.56 µg/mL (≈ 4.54 µM); MIC (H. pylori [2]; NCTC11637, NCTC 11637): 1.56 µg/mL; MIC (H. pylori [2]; NCTC11639, NCTC 11639): 0.8 µg/mL
